Data taken from US20250339566A1, “INHIBITORS OF FIBROBLAST ACTIVATION PROTEIN” (UNIVERSITEIT ANTWERPEN, priority 2022, published 2025).
Where two headings read alike, the source gives them in different places.

Key:
Assay type in all cases: biochemical
[1] = target: T1, Human recombinant PREP (Homo sapiens, UniProt P48147); assay: PREP IC50 measurement (N-succinyl-Gly-Pro-AMC); details: for Selectivity index PREP: IC50(PREP)/IC50(FAP); for IC50: N-succinyl-Gly-Pro-AMC 250 μM, pH 7.4
T1 construct: made in house; host or cells: E. coli BL21(DE3)
T1 sequence (P48147 1-710): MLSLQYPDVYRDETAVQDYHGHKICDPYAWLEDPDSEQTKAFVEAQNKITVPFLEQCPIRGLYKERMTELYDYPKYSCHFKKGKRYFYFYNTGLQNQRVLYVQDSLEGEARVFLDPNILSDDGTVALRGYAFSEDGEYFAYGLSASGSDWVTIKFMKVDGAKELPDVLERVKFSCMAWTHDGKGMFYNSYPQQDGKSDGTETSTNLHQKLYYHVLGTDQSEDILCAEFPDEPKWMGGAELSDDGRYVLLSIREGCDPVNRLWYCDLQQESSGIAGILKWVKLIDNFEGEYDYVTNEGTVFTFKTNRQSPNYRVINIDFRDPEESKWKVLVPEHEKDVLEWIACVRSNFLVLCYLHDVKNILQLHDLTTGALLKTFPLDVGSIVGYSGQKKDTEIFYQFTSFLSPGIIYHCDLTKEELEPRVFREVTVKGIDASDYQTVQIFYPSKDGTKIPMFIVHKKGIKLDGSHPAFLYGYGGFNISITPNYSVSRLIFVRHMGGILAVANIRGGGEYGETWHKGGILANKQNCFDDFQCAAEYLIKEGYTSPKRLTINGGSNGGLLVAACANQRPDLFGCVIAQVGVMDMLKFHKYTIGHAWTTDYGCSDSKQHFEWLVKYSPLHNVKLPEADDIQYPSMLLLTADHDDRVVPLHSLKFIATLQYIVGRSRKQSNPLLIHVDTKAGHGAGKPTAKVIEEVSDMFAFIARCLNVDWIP
Source text: (§1) Used Enzymes in these Assays: • A gateway-entry clone for human FAP was purchased from Dharmacon (Accession number DQ891423) and the human secretion signal was replaced with the HoneyBee mellitin secretion signal. For transfection and expression of FAP in Sf9 insect cells the C-terminal BaculoDirect kit from LifeTechnologies was used. The enzyme was purified from the supernatant of the insect cells using immobilized Ni-chelating chromatography (GE healthcare, Diegem, Belgium), followed by anion-exchange chromatography using a 1 mL HiTrap Q and size exclusion chromatography using the Superdex 200 column (GE healthcare, Diegem, Belgium). • Human recombinant PREP was expressed in BL21(DE3) cells and purified using immobilized Co-chelating chromatography (GE healthcare), followed by anion-exchange chromatography on a 1 ml Mono Q column (GE healthcare). • DPP4 was purified from human seminal plasma. • Gateway-entry clones for human DPP8 and DPP9 were purchased from Dharmacon (Accession numbers DQ891733 and DQ892325 respectively). For transfection and expression of DPP8 and DPP9 in Sf9 insect cells the N-terminal BaculoDirect kit from LifeTechnologies was used. The enzymes were purified using immobilized Ni-chelating chromatography (GE healthcare, Diegem, Belgium), followed by anion-exchange chromatography using a 1 mL Mono Q (GE healthcare, Diegem, Belgium). • Recombinant human DPP2 was purchased from R&D.
(§2) Eight concentrations of inhibitors/probe were tested. The final DMSO concentration was kept constant during the experiment to exclude any effects. Inhibitors were pre-incubated with the enzyme for 15 minutes at 37° C., afterwards the substrate was added and the velocities of AMC release were measured kinetically at λex=380 nm, λem=465 nm for at least 10 minutes at 37° C. […] Eight concentrations of inhibitors were tested. The final DMSO concentration in kept constant during the experiment to exclude any effects. Inhibitors were pre-incubated with the enzyme for 15 minutes at 37° C., afterwards the substrate was added and the velocities of AMC release were measured kinetically at λex=380 nm, λem=465 nm for at least 10 minutes at 37° C. […] At least eight different inhibitor concentrations were used. The final DMSO concentration is kept constant during the experiment to exclude any effects. Inhibitors were pre-incubated with the enzyme for 15 minutes at 37° C., afterwards the substrate was added and the velocities of pNA release were measured kinetically at 405 nm for at least 10 minutes at 37° C. Measurements were done on the Infinite 200 (Tecan Group Ltd.) and the Magellan software was used to process the data. • For DPP2: Initial velocity measurements were carried out. Lys-Ala-pNA was used as the substrate at a concentration of 1 mM at pH 5.5 (100 mM NaAc, 10 mM EDTA, 14 μg/mL aprotinin). Inhibitors were tested at one concentration, 5 μM, being the final concentration in the well. Inhibitors were pre-incubated with the enzyme for 15 minutes at 37° C., afterwards the substrate was added and the velocities of pNA release were measured kinetically at 405 nm for at least 10 minutes at 37° C. Measurements were done on the Infinite 200 (Tecan Group Ltd.) and the Magellan software was used to process the data.

[2] = target: T2, human FAP (Homo sapiens, UniProt Q12884); assay: FAP IC50 measurement (Z-Gly-Pro-AMC); details: Z-Gly-Pro-AMC 50 μM, pH 8, 15 min pre-incubation
T2 construct: the human secretion signal was replaced with the HoneyBee mellitin secretion signal; honeybee melittin secretion signal (replaces the native signal) (N); made in house; host or cells: Sf9 insect cells (baculovirus), purified from supernatant
T2 sequence (Q12884 26-760 limits assumed): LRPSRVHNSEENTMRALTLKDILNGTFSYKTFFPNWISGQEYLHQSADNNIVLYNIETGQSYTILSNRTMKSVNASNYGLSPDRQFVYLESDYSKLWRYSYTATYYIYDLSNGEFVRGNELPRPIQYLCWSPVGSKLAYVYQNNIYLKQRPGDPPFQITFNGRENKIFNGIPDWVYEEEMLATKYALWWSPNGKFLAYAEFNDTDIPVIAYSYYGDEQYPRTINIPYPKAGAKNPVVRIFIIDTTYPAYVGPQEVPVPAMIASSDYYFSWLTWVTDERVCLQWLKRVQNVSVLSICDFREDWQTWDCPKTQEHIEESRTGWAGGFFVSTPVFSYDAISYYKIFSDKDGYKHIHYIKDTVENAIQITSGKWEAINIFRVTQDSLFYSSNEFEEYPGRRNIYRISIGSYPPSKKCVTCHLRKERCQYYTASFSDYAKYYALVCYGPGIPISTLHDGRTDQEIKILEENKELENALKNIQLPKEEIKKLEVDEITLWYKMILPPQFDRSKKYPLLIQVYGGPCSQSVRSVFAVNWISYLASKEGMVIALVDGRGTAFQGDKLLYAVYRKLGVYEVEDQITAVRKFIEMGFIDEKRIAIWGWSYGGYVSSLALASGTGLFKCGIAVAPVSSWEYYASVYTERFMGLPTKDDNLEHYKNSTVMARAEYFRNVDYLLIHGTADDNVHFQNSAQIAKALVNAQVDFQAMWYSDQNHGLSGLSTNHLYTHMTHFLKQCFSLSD
Source text: as §1, §2

[3] = target: T3, human DPP9 (Homo sapiens, UniProt Q86TI2); assay: DPP9 IC50 measurement (Ala-Pro-pNA); details: for IC50: Ala-Pro-pNA 150 μM, pH 7.4; for Selectivity index DPP9: IC50(DPP9)/IC50(FAP)
T3 construct: made in house; host or cells: Sf9 insect cells (baculovirus)
Source text: as §1, §2

[4] = target: T4, human DPP8 (Homo sapiens, UniProt Q6V1X1); assay: DPP8 IC50 measurement (Ala-Pro-pNA); details: for IC50: read-out: DPP8 IC50; for Selectivity index DPP8: IC50(DPP8)/IC50(FAP)
T4 construct: made in house; host or cells: Sf9 insect cells (baculovirus)
Source text: as §1, §2

[5] = target: T5, DPP4 (Homo sapiens, UniProt P27487); assay: DPP4 IC50 measurement (Ala-Pro-pNA); details: for IC50: Ala-Pro-pNA 25 μM, pH 7.4; for Selectivity index DPP4: IC50(DPP4)/IC50(FAP)
T5 construct: DPP4 was purified from human seminal plasma; from tissue; host or cells: human seminal plasma
Source text: as §1, §2

T4 sequence (Q6V1X1 whole entry): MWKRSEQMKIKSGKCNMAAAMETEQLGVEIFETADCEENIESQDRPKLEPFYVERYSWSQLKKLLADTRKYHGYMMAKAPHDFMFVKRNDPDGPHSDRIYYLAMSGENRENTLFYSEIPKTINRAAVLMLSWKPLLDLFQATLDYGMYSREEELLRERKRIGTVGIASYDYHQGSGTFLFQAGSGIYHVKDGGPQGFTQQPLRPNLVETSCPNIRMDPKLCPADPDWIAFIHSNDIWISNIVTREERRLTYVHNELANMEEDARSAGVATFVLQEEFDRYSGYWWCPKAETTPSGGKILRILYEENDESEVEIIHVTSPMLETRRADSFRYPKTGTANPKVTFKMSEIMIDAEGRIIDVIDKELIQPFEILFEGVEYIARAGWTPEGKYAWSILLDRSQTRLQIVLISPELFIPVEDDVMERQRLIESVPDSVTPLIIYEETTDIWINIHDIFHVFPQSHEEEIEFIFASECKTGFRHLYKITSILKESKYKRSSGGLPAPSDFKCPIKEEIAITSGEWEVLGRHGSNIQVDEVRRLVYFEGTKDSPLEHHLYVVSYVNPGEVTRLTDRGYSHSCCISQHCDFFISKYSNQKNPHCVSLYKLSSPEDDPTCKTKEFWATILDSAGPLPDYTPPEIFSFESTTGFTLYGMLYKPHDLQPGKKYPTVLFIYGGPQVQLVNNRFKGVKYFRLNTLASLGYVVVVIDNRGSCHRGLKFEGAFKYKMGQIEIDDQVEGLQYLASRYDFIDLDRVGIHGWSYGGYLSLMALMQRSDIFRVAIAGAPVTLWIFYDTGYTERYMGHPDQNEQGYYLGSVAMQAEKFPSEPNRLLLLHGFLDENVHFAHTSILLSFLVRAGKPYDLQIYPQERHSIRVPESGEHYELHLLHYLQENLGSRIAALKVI
T5 sequence (P27487 whole entry): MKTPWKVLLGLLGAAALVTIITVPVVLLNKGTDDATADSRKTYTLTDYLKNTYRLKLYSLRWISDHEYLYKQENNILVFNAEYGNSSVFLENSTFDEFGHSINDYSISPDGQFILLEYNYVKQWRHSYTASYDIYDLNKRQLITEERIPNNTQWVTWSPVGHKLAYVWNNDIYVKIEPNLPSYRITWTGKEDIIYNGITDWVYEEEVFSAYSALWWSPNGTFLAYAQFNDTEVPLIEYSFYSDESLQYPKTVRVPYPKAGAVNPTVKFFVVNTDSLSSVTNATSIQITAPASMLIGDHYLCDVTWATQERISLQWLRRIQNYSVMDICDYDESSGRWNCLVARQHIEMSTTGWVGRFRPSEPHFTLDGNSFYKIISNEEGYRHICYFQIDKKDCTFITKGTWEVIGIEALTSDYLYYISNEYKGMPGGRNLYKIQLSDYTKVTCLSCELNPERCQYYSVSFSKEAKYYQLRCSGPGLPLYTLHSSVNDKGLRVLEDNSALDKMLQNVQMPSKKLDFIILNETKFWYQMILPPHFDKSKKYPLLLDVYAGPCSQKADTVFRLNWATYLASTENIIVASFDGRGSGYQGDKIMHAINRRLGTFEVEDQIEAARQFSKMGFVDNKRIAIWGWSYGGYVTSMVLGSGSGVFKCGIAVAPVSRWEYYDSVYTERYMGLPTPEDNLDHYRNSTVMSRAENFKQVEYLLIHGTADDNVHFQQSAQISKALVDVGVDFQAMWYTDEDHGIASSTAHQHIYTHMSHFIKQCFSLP
T3 sequence (Q86TI2 whole entry): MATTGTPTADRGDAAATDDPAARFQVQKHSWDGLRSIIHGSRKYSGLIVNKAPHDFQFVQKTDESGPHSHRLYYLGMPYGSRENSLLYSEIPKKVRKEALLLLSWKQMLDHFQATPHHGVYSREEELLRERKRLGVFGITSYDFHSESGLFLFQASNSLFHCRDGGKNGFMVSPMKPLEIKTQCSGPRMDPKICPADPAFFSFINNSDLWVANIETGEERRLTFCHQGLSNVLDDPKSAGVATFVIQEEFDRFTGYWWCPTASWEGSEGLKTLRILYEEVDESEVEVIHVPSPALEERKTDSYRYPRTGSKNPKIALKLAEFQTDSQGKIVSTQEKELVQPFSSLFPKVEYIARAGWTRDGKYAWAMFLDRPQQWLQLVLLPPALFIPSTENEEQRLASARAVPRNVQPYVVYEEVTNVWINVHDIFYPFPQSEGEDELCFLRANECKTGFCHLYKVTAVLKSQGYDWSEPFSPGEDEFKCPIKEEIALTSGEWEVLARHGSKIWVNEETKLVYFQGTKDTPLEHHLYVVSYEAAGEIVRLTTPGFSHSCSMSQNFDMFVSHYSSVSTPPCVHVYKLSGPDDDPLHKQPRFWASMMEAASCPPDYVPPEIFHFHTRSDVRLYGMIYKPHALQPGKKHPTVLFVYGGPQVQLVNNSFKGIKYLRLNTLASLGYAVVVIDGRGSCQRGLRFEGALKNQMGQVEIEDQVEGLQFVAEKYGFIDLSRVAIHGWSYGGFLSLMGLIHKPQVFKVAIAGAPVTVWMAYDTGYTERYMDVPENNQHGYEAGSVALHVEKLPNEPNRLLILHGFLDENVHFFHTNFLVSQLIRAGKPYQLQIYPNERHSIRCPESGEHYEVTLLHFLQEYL

Row | Structure (SMILES) | Selectivity index PREP [1] | IC50 [1] | IC50 [2] | IC50 [3] | Selectivity index DPP9 [3] | IC50 ([4]; Ala-Pro-pNA 300 μM, pH 7.4) | Selectivity index DPP8 [4] | IC50 [5] | Selectivity index DPP4 [5] | Selectivity index PREP ([1]; 4-methylbenzenesulfonate) | Selectivity index PREP ([1]; listed as UAMC-0005086, 4-methylbenzenesulfonate) | IC50 ([4]; heading: DPP8 IC50)
1 | C[N+](C)(CF)CCCOc1ccc2nccc(C(=O)NCC(=O)N3CC(F)(F)C[C@H]3C#N)c2c1.Cc1ccc(S(=O)(=O)[O-])cc1 [Compound 4a, (S)-3-((4-((2-(2-cyano-4,4-difluoropyrrolidin-1-yl)-2-oxoethyl)carbamoyl)quinoline-6-yl)oxy)-N-(fluoromethyl)-N,N-dimethylpropan-1-aminium benzenesulfonate] | >31000 | > 10 µM | 0.00032 ± 2e-05 µM | > 10 µM | >31000 | > 10 µM | >31000 | > 10 µM | >31000 |  |  | 
2 | C[N+](C)(CF)CCOc1ccc2nccc(C(=O)NCC(=O)N3CC(F)(F)C[C@H]3C#N)c2c1.Cc1ccc(S(=O)(=O)[O-])cc1 [Compound 4b, (S)-2-((4-((2-(2-cyano-4,4-difluoropyrrolidin-1-yl)-2-oxoethyl)carbamoyl)quinoline-6-yl)oxy)-N-(fluoromethyl)-N,N-dimethylethan-1-aminium 4-methylbenzenesulfonate] |  | > 10 µM | 0.00253 ± 0.00013 µM | > 10 µM | >4800 | > 10 µM | >4800 | > 10 µM | >4800 | 4853 | >4800 | 
3 | C[N+](C)(C)CCOCCOCCOc1ccc2nccc(C(=O)NCC(=O)N3CC(F)(F)C[C@H]3C#N)c2c1.Cc1ccc(S(=O)(=O)[O-])cc1 [Compound 7, (S)-2-(2-(2-((4-((2-(2-cyano-4,4-difluoropyrrolidin-1-yl)-2-oxoethyl)carbamoyl)quinolin-6-yl)oxy)ethoxy)ethoxy)-N,N,N-trimethylethan-1-aminium 4-methylbenzenesulfonate] | >36000 | > 10 µM | 0.00027 ± 2e-05 µM | > 10 µM | >36000 | > 10 µM | >36000 | > 10 µM | >36000 |  |  | 
4 | C[N+](C)(CCF)CCOCCOc1ccc2nccc(C(=O)NCC(=O)N3CC(F)(F)C[C@H]3C#N)c2c1 [Compound 8, (S)-2-(2-((4-((2-(2-cyano-4,4-difluoropyrrolidin-1-yl)-2-oxoethyl)carbamoyl)quinolin-6-yl)oxy)ethoxy)-N-(2-fluoroethyl)-N,N-dimethylethan-1-aminium 4-methylbenzenesulfonate] | >1300 | > 10 µM | 0.00942 ± 0.00344 µM | > 10 µM | >1300 | > 10 µM | >1300 | > 10 µM | >1300 |  |  | 
5 | C[N+](C)(CF)CCOCCOc1ccc2nccc(C(=O)NCC(=O)N3CC(F)(F)C[C@H]3C#N)c2c1.Cc1ccc(S(=O)(=O)[O-])cc1 [Compound 9, (S)-2-(2-((4-((2-(2-cyano-4,4-difluoropyrrolidin-1-yl)-2-oxoethyl)carbamoyl)quinolin-6-yl)oxy)ethoxy)-N-(fluoromethyl)-N,N-dimethylethan-1-aminium 4-methylbenzenesulfonate] | >10000 | 5.33 ± 0.71 µM | 0.00049 ± 1e-06 µM |  | >20000 |  | >20000 |  | >20000 |  |  | 
6 | C[N+](C)(CF)CCOCCOCCOc1ccc2nccc(C(=O)NCC(=O)N3CC(F)(F)C[C@H]3C#N)c2c1 [Compound 10, (S)-2-(2-(2-((4-((2-(2-cyano-4,4-difluoropyrrolidin-1-yl)-2-oxoethyl)carbamoyl)quinolin-6-yl)oxy)ethoxy)ethoxy)-N-(fluoromethyl)-N,N-dimethylethan-1-aminium hexafluorophosphate(V)] | >2100 | > 1 µM | 0.00046 ± 4e-05 µM | > 10 µM | >21000 | > 10 µM | >21000 | > 1 µM | >2100 |  |  | 
7 | CC(C)(C)OC(=O)N1CC[N+](C)(CCCOc2ccc3nccc(C(=O)NCC(=O)N4CC(F)(F)C[C@H]4C#N)c3c2)CC1 [Compound 11, (S)-4-(tert-butoxycarbonyl)-1-(3-((4-((2-(2-cyano-4,4-difluoropyrrolidin-1-yl)-2-oxoethyl)carbamoyl)quinolin-6-yl)oxy)propyl)-1-methylpiperazin-1-ium iodide] | >22000 | > 10 µM | 0.00044 ± 5e-05 µM | 0.62 ± 0.08 µM | >2200 | > 1 µM | >2200 | > 10 µM | >22000 |  |  | 
8 | N#C[C@@H]1CC(F)(F)CN1C(=O)CNC(=O)c1ccnc2ccccc12 [UAMC1110, reference compound] |  |  |  |  |  |  |  |  |  |  |  | > 10 µM
